Some test systems named below: SF-539; RXF 393; SF-295; ACHN; OVCAR-8; CAKI-1; 786-0; HOP-62; COLO 205; U-251; EKVX; DU-145; UACC-62; OVCAR-4; RPMI-8226; HCT-15; NCI-H23; OVCAR-3; KM12; SNB-75.
Holding throughout (test): NCI-60 cell line screen, 48 h

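Dose response: 5 concentrations. Exposure: 48 h. Format: 96-well plates. Endpoint: linear interpolation; highest concentration if not reached. Abbreviation: GI50, concentration required for 50% inhibition of growth.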 Active and inactive are the calls of the source. Rule as the data show it: active = GI50 up to about 1.1 µM and inactive = higher.

For `O=C(O)c1nn(-c2ccccc2)nc1-c1nn(-c2ccccc2)nc1C(=O)O`, the GI50 in the assay on SF-539, with RXF 393, in the assay on SF-295, with ACHN, in the assay on OVCAR-8 and in the assay on CAKI-1 was > 100 µM (inactive) each time. Besides, the GI50 in the assay with 786-0, in the assay with HOP-62, in the assay with COLO 205, in the assay on U-251, in the assay on EKVX and in the assay on DU-145 was > 100 µM (inactive) each time. The GI50 in the assay with UACC-62 is > 100 µM (inactive); in the assay with OVCAR-4 it was > 100 µM (inactive); in the assay on RPMI-8226, > 100 µM (inactive); in the assay with HCT-15, greater than 100 µM; with NCI-H23 it was > 100 µM (inactive); in the assay with OVCAR-3, > 100 µM (inactive). In the assay with KM12, the GI50 was > 100 µM (inactive).
As for `CCCCCCCCCCCCCCCCOCC(O)CO` (stereo not given), the GI50 was 16.3 µM (inactive) in the assay with SF-539; 16.2 µM (inactive) with RXF 393; 16.4 µM (inactive) in the assay with SF-295; 18.8 µM (inactive) in the assay with ACHN; 17.9 µM (inactive) in the assay on OVCAR-8; 17.6 µM (inactive) with CAKI-1. For the same compound, the GI50 was 18.4 µM (inactive) with 786-0; 19.6 µM (inactive) in the assay with HOP-62; 22.1 µM (inactive) in the assay on COLO 205; 19 µM (inactive) in the assay with U-251; 18.2 µM (inactive) in the assay with EKVX; 18.9 µM (inactive) with DU-145. Besides, the GI50 with UACC-62 is 17 µM (inactive); in the assay on OVCAR-4, 21 µM (inactive); in the assay with RPMI-8226, 14.8 µM (inactive); with HCT-15, 18.7 µM; in the assay with NCI-H23 it was 17.9 µM (inactive); in the assay on OVCAR-3, 20.7 µM (inactive). Moreover, the GI50 with KM12 is 17.4 µM (inactive).
As for `COc1ccc(C(c2cc(OC)c(OC)c(OC)c2)N2C(=O)CCC2C(=O)O)cc1` (stereo not given), the GI50 was 21.2 µM (inactive) in the assay on SF-539; 24.3 µM (inactive) with SF-295; 89.3 µM (inactive) with ACHN; 41.8 µM (inactive) in the assay with OVCAR-8; 79.6 µM (inactive) in the assay with CAKI-1; 73.1 µM (inactive) in the assay on 786-0. For the same compound, the GI50 in the assay with HOP-62 was > 100 µM (inactive); in the assay on COLO 205 it was 41 µM (inactive); with U-251, 38.3 µM (inactive); in the assay on EKVX, > 100 µM (inactive); in the assay on DU-145 it was > 100 µM (inactive); with UACC-62 it was 51.3 µM (inactive). For the same compound, the GI50 in the assay on SNB-75 was 59 µM (inactive); with OVCAR-4 it was > 100 µM (inactive); with RPMI-8226, 49.8 µM (inactive); in the assay with HCT-15 it was 43.9 µM; with NCI-H23, 82.8 µM (inactive); with OVCAR-3 it was 33.8 µM (inactive). Besides, the GI50 in the assay with KM12 was 35.6 µM (inactive).
On to `CC(=O)c1cc(I)c(O)c2ncccc12`, for which the GI50 with SF-539 was 3.05 µM (inactive); in the assay with RXF 393, 3.92 µM (inactive); with SF-295 it was 4.07 µM (inactive); in the assay on ACHN, 2.43 µM (inactive); in the assay with OVCAR-8, 2.92 µM (inactive); with CAKI-1, 3.08 µM (inactive). The GI50 with 786-0 was 3.03 µM (inactive); with HOP-62, 4.36 µM (inactive); in the assay with COLO 205, 3.11 µM (inactive); in the assay with U-251 it was 3.97 µM (inactive); in the assay on EKVX, 6.49 µM (inactive); in the assay with DU-145 it was 3.3 µM (inactive). Besides, the GI50 in the assay on UACC-62 was 3.3 µM (inactive); with OVCAR-4 it was 2.94 µM (inactive); in the assay on RPMI-8226 it was 2.67 µM (inactive); with HCT-15, 5.13 µM; with NCI-H23 it was 3.13 µM (inactive); with OVCAR-3, 3.21 µM (inactive). The GI50 with KM12 is > 10 µM (inactive).
Take `CN(C)CCOc1ccc2[nH]c(C(=O)N3CC(CCl)c4c3cc(N)c3ccccc43)cc2c1` (stereo not given): the GI50 in the assay on SF-539, in the assay with SF-295, with ACHN, with OVCAR-8, in the assay on CAKI-1 and in the assay with 786-0 was < 0.01 µM (active) in each case. Moreover, the GI50 with HOP-62, with COLO 205, in the assay with U-251, in the assay with EKVX, with DU-145 and in the assay on UACC-62 was < 0.01 µM (active) in each case. Also, the GI50 was < 0.01 µM (active) with SNB-75; < 0.01 µM (active) in the assay with OVCAR-4; < 0.01 µM (active) in the assay on RPMI-8226; less than 0.01 µM in the assay on HCT-15; < 0.01 µM (active) in the assay with NCI-H23; < 0.01 µM (active) with OVCAR-3. In the assay on KM12, the GI50 was < 0.01 µM (active).
On to `Cc1oc(N)c(S(=O)(=O)c2cc3ccccc3[n+]([O-])c2N)c1C`, for which the GI50 in the assay with SF-539, in the assay with SF-295, with ACHN, in the assay on OVCAR-8, with CAKI-1 and in the assay on 786-0 was > 100 µM (inactive) throughout. Further, the GI50 in the assay with HOP-62, in the assay with COLO 205, in the assay with U-251, in the assay on EKVX, with DU-145 and with UACC-62 was > 100 µM (inactive) each time. In addition, the GI50 is > 100 µM (inactive) with SNB-75; > 100 µM (inactive) in the assay with OVCAR-4; > 100 µM (inactive) with RPMI-8226; greater than 100 µM with HCT-15; > 100 µM (inactive) in the assay on NCI-H23; > 100 µM (inactive) with OVCAR-3. Also, the GI50 with KM12 is > 100 µM (inactive).
Turning to `Cc1ccc(S(=O)(=O)N/N=C2/C3CCC(C3)C2c2ccccc2)cc1` (stereo not given), the GI50 with SF-295, in the assay with ACHN, with OVCAR-8, in the assay with CAKI-1, in the assay on 786-0 and in the assay with HOP-62 was > 100 µM (inactive) each time. The GI50 with COLO 205, in the assay with U-251, with EKVX, in the assay with DU-145, in the assay on UACC-62 and in the assay on SNB-75 was > 100 µM (inactive) in each case. The GI50 in the assay on OVCAR-4 is > 100 µM (inactive); in the assay on RPMI-8226, > 100 µM (inactive); with HCT-15, greater than 100 µM; in the assay with NCI-H23 it was > 100 µM (inactive); with OVCAR-3, > 100 µM (inactive); in the assay on KM12, > 100 µM (inactive).
With `C/C(CC1C2CCCC1C2)=N\NC(N)=O` (stereo not given), the GI50 in the assay on SF-539, with SF-295, in the assay on ACHN, in the assay on OVCAR-8, in the assay on CAKI-1 and with 786-0 was > 100 µM (inactive) in each case. For the same compound, the GI50 in the assay on HOP-62, in the assay with COLO 205, in the assay with U-251, in the assay on EKVX, in the assay with DU-145 and in the assay with UACC-62 was > 100 µM (inactive) each time. In addition, the GI50 is > 100 µM (inactive) with SNB-75; > 100 µM (inactive) with OVCAR-4; > 100 µM (inactive) with RPMI-8226; greater than 100 µM in the assay on HCT-15; > 100 µM (inactive) with NCI-H23; 7.24 µM (inactive) in the assay on OVCAR-3. Besides, in the assay on KM12, the GI50 is > 100 µM (inactive).
For the compound `CC1CN=C(N(C(=O)Nc2ccc(Cl)c(Cl)c2)c2ccccc2)S1` (stereo not given), the GI50 with SF-539 is 39.4 µM (inactive); in the assay on SF-295, 75.7 µM (inactive); in the assay on ACHN it was 57.8 µM (inactive); in the assay on OVCAR-8 it was 87.1 µM (inactive); in the assay on CAKI-1, 77.6 µM (inactive); in the assay with 786-0, 43.4 µM (inactive). In addition, the GI50 with HOP-62 was > 100 µM (inactive); in the assay on COLO 205, 37.2 µM (inactive); with U-251, 53.5 µM (inactive); with EKVX, 71.1 µM (inactive); in the assay on DU-145 it was 91.8 µM (inactive); with SNB-75 it was 56.2 µM (inactive). Besides, the GI50 in the assay with OVCAR-4 is 41.4 µM (inactive); in the assay on RPMI-8226, 64.9 µM (inactive); in the assay on HCT-15, 27 µM; in the assay on NCI-H23, 64.9 µM (inactive); in the assay on OVCAR-3, 68.1 µM (inactive); with KM12 it was 32.1 µM (inactive).
`Cn1c(=O)c2c(nc(N/N=C3/SCC(=O)N3Cc3ccccc3)n2C)n(C)c1=O`: the GI50 was 25.6 µM (inactive) in the assay with SF-539; > 100 µM (inactive) with RXF 393; > 100 µM (inactive) in the assay on SF-295; > 100 µM (inactive) in the assay with ACHN; > 100 µM (inactive) in the assay with OVCAR-8; > 100 µM (inactive) with CAKI-1. The GI50 with 786-0 is > 100 µM (inactive); in the assay with HOP-62 it was > 100 µM (inactive); with COLO 205, 50.4 µM (inactive); in the assay with U-251, 54.6 µM (inactive); in the assay with EKVX it was 94.2 µM (inactive); in the assay with DU-145, > 100 µM (inactive). Besides, the GI50 in the assay on UACC-62 is 64.4 µM (inactive); in the assay with OVCAR-4, 26.4 µM (inactive); with RPMI-8226 it was 17.5 µM (inactive); in the assay with HCT-15, 85.5 µM; with NCI-H23 it was > 100 µM (inactive); in the assay with OVCAR-3, 20.9 µM (inactive). For the same compound, in the assay on KM12, the GI50 is 94.2 µM (inactive).
Regarding `CC(C)C1=CC23CCC4C(C)(C(=O)O)CCCC4(C)C2CC1C1C(=O)N(c2ccc(Cc4ccc(N5C(=O)C6C7CC8C9(C)CCCC(C)(C(=O)O)C9CCC8(C=C7C(C)C)C6C5=O)cc4)cc2)C(=O)C13` (stereo not given), the GI50 was 4.16 µM (inactive) in the assay on SF-539; 13 µM (inactive) in the assay on RXF 393; 5.41 µM (inactive) in the assay on ACHN; 5.26 µM (inactive) in the assay with OVCAR-8; 10.9 µM (inactive) with 786-0; 11.6 µM (inactive) in the assay with HOP-62. For the same compound, the GI50 is 7.06 µM (inactive) with COLO 205; 3.94 µM (inactive) in the assay with U-251; 6.58 µM (inactive) in the assay on EKVX; 10.3 µM (inactive) with DU-145; 11 µM (inactive) with UACC-62; 14.4 µM (inactive) in the assay on OVCAR-4. Moreover, the GI50 in the assay on RPMI-8226 is 9.14 µM (inactive); with HCT-15, 10.6 µM; in the assay with NCI-H23, 1.93 µM (inactive); with OVCAR-3, 10.7 µM (inactive); in the assay on KM12, 5.97 µM (inactive).

The values above are taken from ChEMBL document CHEMBL1201862, “PubChem BioAssay data set” (2004).
